# Test results reported in ChEMBL document CHEMBL3045586, “Synthesis and antimicrobial activity of some new 4-triazolylmethoxy-2H-chromen-2-one derivatives” (2012).
# Legend:
# Escherichia coli [1] = assay type: functional, MTCC 443
# Klebsiella pneumoniae [2] = assay: Bactericidal activity against Klebsiella pneumoniae MTCC 432 after 3 days; assay type: functional; conditions: MTCC 432, 72 h
# Bacillus subtilis [3] = assay type: functional, MTCC 441
# Candida albicans [4] = assay type: functional, MTCC 227
# Klebsiella pneumoniae [5] = assay: Antibacterial activity against Klebsiella pneumoniae MTCC 432 after 16 to 18 hr by serial dilution method; assay type: functional
# Pseudomonas aeruginosa [6] = assay type: functional, MTCC 424
# Klebsiella pneumoniae [7] = assay type: functional, MTCC 432
# Aspergillus flavus [8] = assay: Antifungal activity against Aspergillus flavus MTCC 277 after 28 to 30 hr by serial dilution method; assay type: functional
# Staphylococcus aureus [9] = assay: Antibacterial activity against Staphylococcus aureus MTCC 096 after 16 to 18 hr by serial dilution method; assay type: functional
# [10] = tested on: Staphylococcus epidermidis; assay: Antibacterial activity against Staphylococcus epidermidis MTCC 435 after 16 to 18 hr by serial dilution method; assay type: functional
# Bacillus subtilis [11] = assay: Antibacterial activity against Bacillus subtilis MTCC 441 after 16 to 18 hr by serial dilution method; assay type: functional
# Escherichia coli [12] = assay: Bactericidal against Escherichia coli MTCC 443 after 3 days; assay type: functional; conditions: MTCC 443, 72 h
# Staphylococcus aureus [13] = assay type: functional, MTCC 096
# Aspergillus niger [14] = assay: Antifungal activity against Aspergillus niger MTCC 282 after 28 to 30 hr by serial dilution method; assay type: functional
# Staphylococcus aureus [15] = assay: Bactericidal activity against Staphylococcus aureus MTCC 096 after 3 days; assay type: functional; conditions: MTCC 096, 72 h
# Salmonella typhi [16] = assay: Antibacterial activity against Salmonella enterica subsp. enterica serovar Typhi MTCC 733 after 16 to 18 hr by serial dilution method; assay type: functional
# Aspergillus flavus [17] = assay: Antifungal activity against Aspergillus flavus MTCC 277 at […] to […] ug/ml after 28 to 30 hr by cup-plate method; assay type: functional
# Candida albicans [18] = assay: Antifungal activity against Candida albicans MTCC 227 after 28 to 30 hr by serial dilution method; assay type: functional
# [19] = tested on: Staphylococcus epidermidis; assay type: functional, MTCC 435; also: test concentration or dose not given here
# Candida albicans [20] = assay: Fungicidal activity against Candida albicans MTCC 227 after 3 days; assay type: functional; conditions: MTCC 227, 72 h
# Pseudomonas aeruginosa [21] = assay: Antibacterial activity against Pseudomonas aeruginosa MTCC 424 after 16 to 18 hr by serial dilution method; assay type: functional
# Aspergillus fumigatus [22] = assay: Antifungal activity against Aspergillus fumigatus MTCC 343 at […] to […] ug/ml after 28 to 30 hr by cup-plate method; assay type: functional
# Aspergillus niger [23] = assay: Fungicidal activity against Aspergillus niger MTCC 282 after 3 days; assay type: functional; conditions: MTCC 282, 72 h
# Aspergillus fumigatus [24] = assay: Antifungal activity against Aspergillus fumigatus MTCC 343 after 28 to 30 hr by serial dilution method; assay type: functional
# Aspergillus niger [25] = assay: Antifungal activity against Aspergillus niger MTCC 282 at […] to […] ug/ml after 28 to 30 hr by cup-plate method; assay type: functional
# Escherichia coli [26] = assay: Antibacterial activity against Escherichia coli MTCC 443 after 16 to 18 hr by serial dilution method; assay type: functional
# Salmonella typhi [27] = assay: Antibacterial activity against Salmonella enterica subsp. enterica serovar Typhi MTCC 733 at […] to […] ug/ml after 16 to 18 hr by cup-plate method; assay type: functional
SMILES,inhibition zone (IZ) (Escherichia coli [1]),inhibition zone (IZ) (Bacillus subtilis [3]),inhibition zone (IZ) (Candida albicans [4]),MIC (Klebsiella pneumoniae [5]),inhibition zone (IZ) (Pseudomonas aeruginosa [6]),inhibition zone (IZ) (Klebsiella pneumoniae [7]),MIC (Aspergillus flavus [8]),MIC (Staphylococcus aureus [9]),MIC [10],MIC (Bacillus subtilis [11]),inhibition zone (IZ) (Staphylococcus aureus [13]),MIC (Aspergillus niger [14]),MIC (Salmonella typhi [16]),inhibition zone (IZ) (Aspergillus flavus [17]),MIC (Candida albicans [18]),inhibition zone (IZ) [19],inhibition zone (IZ) (Aspergillus fumigatus [22]),MIC (Aspergillus fumigatus [24]),inhibition zone (IZ) (Aspergillus niger [25]),inhibition zone (IZ) (Salmonella typhi [27]),further results
O=c1cc(OCc2nnc(-c3cccs3)[nH]2)c2ccccc2o1,14 mm,11 mm,15 mm,6.25 µg/mL,12 mm,15 mm,12.5 µg/mL,6.25 µg/mL,12.5 µg/mL,12.5 µg/mL,14 mm,6.25 µg/mL,25 µg/mL,13 mm,6.25 µg/mL,11 mm,12 mm,12.5 µg/mL,15 mm,<10 mm,MBC (Klebsiella pneumoniae [2]): 25 µg/mL; MBC (Escherichia coli [12]): 12.5 µg/mL; MBC (Staphylococcus aureus [15]): 6.25 µg/mL; MFC (Candida albicans [20]): 12.5 µg/mL; MIC (Pseudomonas aeruginosa [21]): 12.5 µg/mL; MFC (Aspergillus niger [23]): 12.5 µg/mL; MIC (Escherichia coli [26]): 6.25 µg/mL
O=c1cc(OCc2nnc(-c3ccccc3)[nH]2)c2ccccc2o1,12 mm,11 mm,14 mm,12.5 µg/mL,11 mm,11 mm,12.5 µg/mL,12.5 µg/mL,12.5 µg/mL,12.5 µg/mL,11 mm,12.5 µg/mL,25 µg/mL,12 mm,6.25 µg/mL,12 mm,11 mm,12.5 µg/mL,13 mm,<10 mm,MIC (Pseudomonas aeruginosa [21]): 12.5 µg/mL; MIC (Escherichia coli [26]): 12.5 µg/mL
O=c1cc(OCc2nnc(-c3ccc(Cl)cc3)[nH]2)c2ccccc2o1,13 mm,11 mm,14 mm,12.5 µg/mL,12 mm,12 mm,12.5 µg/mL,12.5 µg/mL,50 µg/mL,12.5 µg/mL,12 mm,12.5 µg/mL,12.5 µg/mL,12 mm,6.25 µg/mL,<10 mm,<10 mm,25 µg/mL,12 mm,12 mm,MIC (Pseudomonas aeruginosa [21]): 12.5 µg/mL; MIC (Escherichia coli [26]): 6.25 µg/mL
O=c1cc(OCc2nnc(-c3ccc(Br)cc3)[nH]2)c2ccccc2o1,15 mm,12 mm,12 mm,6.25 µg/mL,<10 mm,13 mm,12.5 µg/mL,12.5 µg/mL,50 µg/mL,12.5 µg/mL,11 mm,12.5 µg/mL,12.5 µg/mL,12 mm,6.25 µg/mL,<10 mm,<10 mm,25 µg/mL,11 mm,11 mm,MIC (Pseudomonas aeruginosa [21]): 25 µg/mL; MIC (Escherichia coli [26]): 6.25 µg/mL
O=c1cc(OCc2nnc(-c3ccc(O)cc3)[nH]2)c2ccccc2o1,14 mm,<10 mm,15 mm,6.25 µg/mL,<10 mm,14 mm,25 µg/mL,12.5 µg/mL,12.5 µg/mL,50 µg/mL,11 mm,12.5 µg/mL,25 µg/mL,<10 mm,6.25 µg/mL,11 mm,12 mm,12.5 µg/mL,12 mm,10 mm,MIC (Pseudomonas aeruginosa [21]): 50 µg/mL; MIC (Escherichia coli [26]): 6.25 µg/mL
Cc1ccc(-c2nnc(COc3cc(=O)oc4ccccc34)[nH]2)cc1,11 mm,11 mm,15 mm,12.5 µg/mL,11 mm,13 mm,25 µg/mL,12.5 µg/mL,50 µg/mL,12.5 µg/mL,11 mm,6.25 µg/mL,12.5 µg/mL,<10 mm,6.26 µg/mL,<10 mm,11 mm,25 µg/mL,13 mm,12 mm,MIC (Pseudomonas aeruginosa [21]): 12.5 µg/mL; MIC (Escherichia coli [26]): 12.5 µg/mL
COc1ccc(-c2nnc(COc3cc(=O)oc4ccccc34)[nH]2)cc1,11 mm,11 mm,14 mm,6.25 µg/mL,<10 mm,14 mm,25 µg/mL,6.25 µg/mL,25 µg/mL,12.5 µg/mL,13 mm,6.25 µg/mL,25 µg/mL,<10 mm,6.25 µg/mL,<10 mm,<10 mm,25 µg/mL,12 mm,<10 mm,MIC (Pseudomonas aeruginosa [21]): 50 µg/mL; MIC (Escherichia coli [26]): 12.5 µg/mL
O=C(O)c1cn(C2CC2)c2cc(N3CCNCC3)c(F)cc2c1=O [CIPROFLOXACIN],–,18 mm,–,6.25 µg/mL,16 mm,17 mm,–,–,6.25 µg/mL,6.25 µg/mL,17 mm,–,6.25 µg/mL,–,–,15 mm,–,–,–,19 mm,–
Clc1ccc(COC(Cn2ccnc2)c2ccc(Cl)cc2Cl)c(Cl)c1 (configuration not stated) [MICONAZOLE],–,–,15 mm,–,–,–,6.25 µg/mL,–,–,–,–,6.25 µg/mL,–,17 mm,6.25 µg/mL,–,14 mm,12.5 µg/mL,17 mm,–,–
